Each compound was assayed against T1, human OX2 receptor (Homo sapiens, UniProt O43614) (assay: Measurement of orexin type 2 receptor agonist activity (Fluo-4 calcium fluorescence, FDSS)). Conditions: compound at 3 μM; CHO cells forcibly expressing human OX2 receptor; DMSO = 0%, orexin A (human) 10 nM = 100%.
T1 construct: expressed in transfected cells
T1 sequence (O43614 1-444): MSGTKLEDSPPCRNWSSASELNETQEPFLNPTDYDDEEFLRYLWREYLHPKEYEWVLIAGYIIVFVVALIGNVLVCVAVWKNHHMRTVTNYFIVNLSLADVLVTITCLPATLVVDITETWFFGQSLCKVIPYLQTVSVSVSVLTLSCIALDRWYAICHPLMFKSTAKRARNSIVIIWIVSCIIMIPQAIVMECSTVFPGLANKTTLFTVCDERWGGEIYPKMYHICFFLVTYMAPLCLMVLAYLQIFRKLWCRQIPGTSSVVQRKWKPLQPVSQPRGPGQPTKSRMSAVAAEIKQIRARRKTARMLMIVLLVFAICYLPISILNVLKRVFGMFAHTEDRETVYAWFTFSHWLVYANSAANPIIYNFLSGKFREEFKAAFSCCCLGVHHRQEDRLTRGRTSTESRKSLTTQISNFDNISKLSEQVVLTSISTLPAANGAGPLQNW
Type: cell-based
Excerpt: Experimental Example 1: Obtainment of Cell Stably Expressing Human Orexin Type 2 Receptor (hOX2R)
To obtain a cell clone stably expressing human orexin type 2 receptor, human orexin type 2 receptor cDNA was inserted into pcDNA3.1(+) plasmid vector (Invitrogen), and a plasmid DNA for expression of human orexin type 2 receptor (pcDNA3.1(+)/hOX2R) was cloned. The plasmid DNA was introduced into CHO-dhfr cell by an electroporation method, and human orexin type 2 receptor expressing clone cells were obtained by limiting dilution method by using G418 drug resistance as a selection marker.
Experimental Example 2: Measurement of Orexin Type 2 Receptor Agonist Activity
CHO cells forcibly expressing human OX2 receptor were seeded in each well of 384 well black transparent bottom plate (BD Falcon) at 7,500 cells/well, and cultured for one day in a 5% CO2 incubator at 37° C. After removal of the medium in the cell plate, assay buffer A containing a calcium indicator (HESS (Life Technologies), 20 mM HEPES (Life Technologies), 0.1% BSA (Wako Pure Chemical Industries, Ltd.), 2.5 μg/mL Fluo-4 AM (DOJINDO Chemical), 0.08% Pluronic F127 (DOJINDO Chemical), 1.25 mM probenecid (DOJINDO Chemical)) was added at 30 μL/well. The plate was stood for 30 min in a 5% CO2 incubator at 37° C., and further stood at room temperature for 30 min. A test compound prepared by diluting with assay buffer B (HESS, 20 mM HEPES, 0.1% BSA) was added at 10 μL/well, and the fluorescence value was measured by FDSSμCELL (Hamamatsu Photonics K.K.) every one sec for 1 min, and thereafter every two sec for 1 min 40 sec. The activity (%) of the test compound was calculated assuming that variation in the fluorescence value when DMSO was added instead of the test compound was 0% […], and variation in the fluorescence value when orexin A (human) (PEPTIDE INSTITUTE, INC.) was added at the final concentration of 10 nM was 100% […]. The activity of each compound at the concentration of 3 μM was shown below.

OX2R agonist activity (3 μM, %) [%] | SMILES
80 | COc1ccccc1S(=O)(=O)Nc1cccc(O[C@@H]2CN(C(=O)c3cc(C)ccc3C)C[C@H]2OC)c1C (relative stereo) [Example 103, trans-N-(3-((1-(2,5-dimethylbenzoyl)-4-methoxypyrrolidin-3-yl)oxy)-2-methylphenyl)-2-methoxybenzenesulfonamide]
94 | COc1ccccc1S(=O)(=O)Nc1cc(C)cc(O[C@@H]2CN(C(=O)c3cc(C)ccc3C)C[C@H]2OC)c1 (relative stereo) [Example 105, trans-N-(3-((1-(2,5-dimethylbenzoyl)-4-methoxypyrrolidin-3-yl)oxy)-5-methylphenyl)-2-methoxybenzenesulfonamide]
104 | COc1ccccc1S(=O)(=O)Nc1cncc(O[C@@H]2CN(C(=O)c3cc(C)ccc3C)C[C@H]2OC)c1 (relative stereo) [Example 106, trans-N-(5-((1-(2,5-dimethylbenzoyl)-4-methoxypyrrolidin-3-yl)oxy)pyridin-3-yl)-2-methoxybenzenesulfonamide]
77 | COc1ccccc1S(=O)(=O)Nc1cccc(O[C@@H]2CN(C(=O)c3cc(C)ccc3C)C[C@H]2F)c1 (relative stereo) [Example 107, trans-N-(3-((1-(2,5-dimethylbenzoyl)-4-fluoropyrrolidin-3-yl)oxy)phenyl)-2-methoxybenzenesulfonamide]
52 | CO[C@@H]1CN(C(=O)c2c(C)cccc2C)C[C@H]1Oc1cccc(NS(=O)(=O)c2sccc2Cl)c1F (relative stereo) [Example 111, trans-3-chloro-N-(3-((1-(2,6-dimethylbenzoyl)-4-methoxypyrrolidin-3-yl)oxy)-2-fluorophenyl)thiophene-2-sulfonamide]
60 | COc1ccccc1S(=O)(=O)Nc1cccc(O[C@@H]2CN(C(=O)c3cc(C)ccc3C)C[C@H]2O)c1 (relative stereo) [Example 114, trans-N-(3-((1-(2,5-dimethylbenzoyl)-4-hydroxypyrrolidin-3-yl)oxy)phenyl)-2-methoxybenzenesulfonamide]
66 | COc1ccccc1S(=O)(=O)Nc1cccc(O[C@@H]2CN(C(=O)c3cc(C)ccc3C)C[C@H]2OC)c1Cl (relative stereo) [Example 117, trans-N-(2-chloro-3-((1-(2,5-dimethylbenzoyl)-4-methoxypyrrolidin-3-yl)oxy)phenyl)-2-methoxybenzenesulfonamide]
57 | COc1ccccc1S(=O)(=O)Nc1cccc(C[C@@H]2CN(C(=O)c3cc(C)ccc3C)C[C@H]2OC)c1 (relative stereo) [Example 119, trans-N-(3-((1-(2,5-dimethylbenzoyl)-4-methoxypyrrolidin-3-yl)methyl)phenyl)-2-methoxybenzenesulfonamide]
67 | COc1ccccc1S(=O)(=O)Nc1cccc(O[C@@H]2CN(C(=O)c3cc(C)ccc3C)C[C@H]2C#N)c1 (relative stereo) [Example 126, trans-N-(3-((4-cyano-1-(2,5-dimethylbenzoyl)pyrrolidin-3-yl)oxy)phenyl)-2-methoxybenzenesulfonamide]
103 | COc1ccc(-c2cccc(C(=O)N(C)C)c2)cc1S(=O)(=O)Nc1cccc(NC2CCN(C(=O)c3cccc(C)c3)C2)c1 (stereo not shown) [Example 1, 4′-methoxy-N,N-dimethyl-3′-((3-((1-(3-methylbenzoyl)pyrrolidin-3-yl)amino)phenyl)sulfamoyl)biphenyl-3-carboxamide]
90 | COc1ccc(-c2cccc(C(=O)N(C)C)c2)cc1S(=O)(=O)Nc1cccc(OC2CCN(C(=O)c3cccc(C)c3)C2)c1 (stereo not shown) [Example 2, 4′-methoxy-N,N-dimethyl-3′-((3-((1-(3-methylbenzoyl)pyrrolidin-3-yl)oxy)phenyl)sulfamoyl)bipheny-3-carboxamide]
101 | COc1ccc(-c2cccc(C(=O)N(C)C)c2)cc1S(=O)(=O)Nc1cccc(O[C@H]2CCN(C(=O)c3cccc(C)c3)C2)c1 [Example 6, 4′-methoxy-N,N-dimethyl-3′-((3-(((3S)-1-(3-methylbenzoyl)pyrrolidin-3-yl)oxy)phenyl)sulfamoyl)biphenyl-3-carboxamide]
92 | COc1ccc(-c2cccc(C(=O)N(C)C)c2)cc1S(=O)(=O)Nc1cccc(O[C@H]2CCN(C(=O)c3ccccc3C)C2)c1 [Example 7, 4′-methoxy-N,N-dimethyl-3′-((3-(((3S)-1-(2-methylbenzoyl)pyrrolidin-3-yl)oxy)phenyl)sulfamoyl)biphenyl-3-carboxamide]
91 | COc1ccc(-c2cccc(C(=O)N(C)C)c2)cc1S(=O)(=O)Nc1cccc(O[C@H]2CCN(C(=O)c3ccccc3N(C)C)C2)c1 [Example 9, 3′-((3-(((3S)-1-(2-(dimethylamino)benzoyl)pyrrolidin-3-yl)oxy)phenyl)sulfamoyl)-4′-methoxy-N,N-dimethylbiphenyl-3-carboxamide]
106 | COc1ccc(-c2cccc(C(=O)N(C)C)c2)cc1S(=O)(=O)Nc1cccc(O[C@H]2CCN(C(=O)c3c(C)cccc3C)C2)c1 [Example 10, 3′-((3-(((3S)-1-(2,6-dimethylbenzoyl)pyrrolidin-3-yl)oxy)phenyl)sulfamoyl)-4′-methoxy-N,N-dimethylbiphenyl-3-carboxamide]
97 | COc1ccc(-c2cccc(C(=O)N(C)C)c2)cc1S(=O)(=O)Nc1cccc(O[C@H]2CCN(C(=O)c3cnn(C)c3-c3ccccc3)C2)c1 [Example 13, 4′-methoxy-N,N-dimethyl-3′-((3-(((3S)-1-((1-methyl-5-phenyl-1H-pyrazol-4-yl)carbonyl)pyrrolidin-3-yl)oxy)phenyl)sulfamoyl)biphenyl-3-carboxamide]
95 | COc1ccc(-c2cccc(C(=O)N(C)C)c2)cc1S(=O)(=O)Nc1cccc(O[C@H]2CCN(C(=O)C3CCCCO3)C2)c1 (stereo partly drawn) [Example 14, 4′-methoxy-N,N-dimethyl-3′-((3-(((3S)-1-(tetrahydro-2H-pyran-2-ylcarbonyl)pyrrolidin-3-yl)oxy)phenyl)sulfamoyl)biphenyl-3-carboxamide]
99 | COc1ccc(-c2cccc(C(=O)N(C)C)c2)cc1S(=O)(=O)Nc1cccc(O[C@H]2CCN(C(=O)C3(c4ccccc4)CC3)C2)c1 [Example 16, 4′-methoxy-N,N-dimethyl-3′-((3-(((3S)-1-((1-phenylcyclopropyl)carbonyl)pyrrolidin-3-yl)oxy)phenyl)sulfamoyl)biphenyl-3-carboxamide]
90 | COc1ccccc1CC(=O)N1CC[C@H](Oc2cccc(NS(=O)(=O)c3cc(-c4cccc(C(=O)N(C)C)c4)ccc3OC)c2)C1 [Example 17, 4′-methoxy-3′-((3-(((3S)-1-((2-methoxyphenyl)acetyl)pyrrolidin-3-yl)oxy)phenyl)sulfamoyl)-N,N-dimethylbiphenyl-3-carboxamide]
88 | COc1ccc(-c2cccc(C(=O)N(C)C)c2)cc1S(=O)(=O)Nc1cccc(O[C@H]2CCN(C(=O)c3cccnc3C(F)(F)F)C2)c1 [Example 23, 4′-methoxy-N,N-dimethyl-3′-((3-(((3S)-1-((2-(trifluoromethyl)pyridin-3-yl)carbonyl)pyrrolidin-3-yl)oxy)phenyl)sulfamoyl)biphenyl-3-carboxamide]
97 | COc1ccc(-c2cccc(C(=O)N(C)C)c2)cc1S(=O)(=O)Nc1cccc(O[C@H]2CCN(C(=O)c3ccc(C)cc3C)C2)c1 [Example 25, 3′-((3-(((3S)-1-(2,4-dimethylbenzoyl)pyrrolidin-3-yl)oxy)phenyl)sulfamoyl)-4′-methoxy-N,N-dimethylbiphenyl-3-carboxamide]
101 | COc1ccc(-c2cccc(C(=O)N(C)C)c2)cc1S(=O)(=O)Nc1cccc(O[C@H]2CCN(C(=O)c3cccc4c3OCC4)C2)c1 [Example 28, 3′-((3-(((3S)-1-(2,3-dihydro-1-benzofuran-7-ylcarbonyl)pyrrolidin-3-yl)oxy)phenyl)sulfamoyl)-4′-methoxy-N,N-dimethylbiphenyl-3-carboxamide]

Source: patent US11034700B2, “Substituted pyrrolidine compound and use thereof” (Takeda Pharmaceutical Company Limited, priority 2017, dated 2021)
